In one data set the target is CaM (Homo sapiens, UniProt P0DP23). The settings on record: relative to berbamine; cited from earlier work.
Data set [1] deals with red cell membrane CaM-independent Ca^2++Mg^2+ ATPase. As to conditions: relative to berbamine; cited from earlier work.
Data set [2] relates to human K562 leukemia cell line (chronic myeloid leukemia, CML). The data set is described as follows: MTT growth inhibition of leukemia cells, 72 hours. As to conditions: compared with berbamine itself. The format is cell-based. The text has this:
(§1) Leukemia cell lines: human K562 leukemia cell line (chronic myeloid leukemia, CML), K562/adr (drug-resistant chronic myeloid leukemia (CML), NB4 (acute promyelocytic leukemia, AML), Kasumi-1 (acute myeloid leukemia M2 type, AML-M2), Jurkat (acute lymphoblastic leukemia, ALL), H9 (acute lymphoblastic leukemia, ALL).
(§2) Obtaining 6000 well-growing leukemia cells and inoculating them into wells of a 96-well cell culture plate. The culture medium is the 1640 cell culture medium containing 10% fetal bovine serum. After adding of the berbamine derivatives of different concentrations and mixing uniformly, the plate is placed in a carbon dioxide cell incubator (5% CO2) at 37° C. and incubated for 72 hours. Then the viable cell concentration is determined by the MTT method.

Data set [3] has as its system K562/adr (drug-resistant chronic myeloid leukemia). Kind of data set: MTT growth inhibition of leukemia cells, 72 hours. The settings on record: compared with berbamine itself. The format is cell-based, human.
Description: as §1, §2

Data set [4] has as its system Becap37 (human breast cancer cell). The data set is described as follows: MTT growth inhibition of human solid tumor cells, 72 hours. The format is cell-based. The settings on record: compared with berbamine itself.
Description: (§3) Human solid tumor cell lines: HepG2 (human hepatocellular carcinoma, HCC), A549 (human lung cancer), MCF-7 (breast cancer), PANC-1 (pancreatic cancer), PC-3 (prostate cancer), MG63 (osteosarcomas), AGS (gastric cancer), Huh7 (human hepatoma cell), Becap37 (human breast cancer cell), Hela (human cervical cancer cell), RKO (human colon adenocarcinoma cell), SW620 (human colon adenocarcinoma cells), SW480 (human colon cancer cell), MGC 803 (human gastric cancer cell).
as §2, with “4000” for “6000”, “human solid tumor” for “leukemia”, “DMEM High Glucose” for “the 1640”, “adding” for “adding of”, “method, and the cell viability (%) after drug treatment is calculated. In this experiment, the cell viability of control group (not treated with any compound) is set as 100%.” for “method.”

Data set [5] has as its system MGC 803 (human gastric cancer cell). The data set is described as above. The data set is classed as cell-based. The settings on record: compared with berbamine itself.
Description: as §3
as §2, with “4000” for “6000”, “human solid tumor” for “leukemia”, “DMEM High Glucose” for “the 1640”, “adding” for “adding of”, “method, and the cell viability (%) after drug treatment is calculated. In this experiment, the cell viability of control group (not treated with any compound) is set as 100%.” for “method.”

In data set [6] the test system is HepG2 (human hepatocellular carcinoma, HCC). The data set is described as above. The data set is classed as cell-based. As to conditions: compared with berbamine itself.
Description: as §3
as §2, with “4000” for “6000”, “human solid tumor” for “leukemia”, “DMEM High Glucose” for “the 1640”, “adding” for “adding of”, “method, and the cell viability (%) after drug treatment is calculated. In this experiment, the cell viability of control group (not treated with any compound) is set as 100%.” for “method.”

The next data set concerns MCF-7 (breast cancer). The data set is described as above. The settings on record: compared with berbamine itself. The format is cell-based.
Description: as §3
as §2, with “4000” for “6000”, “human solid tumor” for “leukemia”, “DMEM High Glucose” for “the 1640”, “adding” for “adding of”, “method, and the cell viability (%) after drug treatment is calculated. In this experiment, the cell viability of control group (not treated with any compound) is set as 100%.” for “method.”

In data set [7] the test system is PANC-1 (pancreatic cancer). The data set is described as above. The data set is classed as cell-based. As to conditions: compared with berbamine itself.
Description: as §3
as §2, with “4000” for “6000”, “human solid tumor” for “leukemia”, “DMEM High Glucose” for “the 1640”, “adding” for “adding of”, “method, and the cell viability (%) after drug treatment is calculated. In this experiment, the cell viability of control group (not treated with any compound) is set as 100%.” for “method.”

For another data set, the system named is MG63 (osteosarcomas). Described as above. The data set is classed as cell-based. As to conditions: compared with berbamine itself.
Description: as §3
as §2, with “4000” for “6000”, “human solid tumor” for “leukemia”, “DMEM High Glucose” for “the 1640”, “adding” for “adding of”, “method, and the cell viability (%) after drug treatment is calculated. In this experiment, the cell viability of control group (not treated with any compound) is set as 100%.” for “method.”

The test system of data set [8] is RPMI8226 (multiple myeloma). The data set is described as follows: MTT growth inhibition of multiple myeloma cells, 72 hours. The format is cell-based, human. The settings on record: compared with berbamine itself. The protocol:
Multiple myeloma and lymphoma cell lines: U266 (multiple myeloma), RPMI8226 (multiple myeloma), and DOHH2 (lymphoma).
Obtaining 6000 well-growing aforesaid tumor cells and inoculating them into wells of a 96-well cell culture plate. The culture medium is the 1640 cell culture medium containing 10% fetal bovine serum. After adding the berbamine derivatives of different concentrations and mixing uniformly, the plate is placed in a carbon dioxide cell incubator (5% CO2) at 37° C. and incubated for 72 hours. Then the viable cell concentration is determined by the MTT method.

The subject of data set [9] is human leukemia Jurkat cells. As to conditions: cited from earlier work.
The test system of data set [10] is normal human peripheral blood leucocytes. The settings on record: concentration range 0.5 ug/mL to 10 ug/mL; cited from earlier work.

Where two headings read alike, the source gives them in different places.

In the case of `CCOCCCCOc1ccc2cc1Oc1ccc(cc1)C[C@H]1c3cc(c(OC)cc3CCN1C)Oc1c(OC)c(OC)cc3c1[C@@H](C2)N(C)CC3` [EBB, [O-(4-ethoxy)-butyl]-berbamine], the “specific coefficient as CaM antagonist, higher than that of berbamine” value on CaM is 6.5 fold.

For the molecule O-Dansyl berbamine [DB], in data set [1], the “inhibitory activity on red cell membrane CaM-independent Ca^2++Mg^2+ ATPase, stronger than that of berbamine” value is 25 fold.

On to `COc1cc2c3cc1Oc1c(OC)c(OC)cc4c1[C@@H](Cc1ccc(OCCCCCCCN5C(=O)c6ccccc6C5=O)c(c1)Oc1ccc(cc1)C[C@@H]3N(C)CC2)N(C)CC4` [BS-BE-003, 12-O-(7-(1,3-dioxo-isoindolin-2-yl)-heptyl)-berbamine], for which the “improvement of anti-human K562 chronic myelogenous leukemia activity” value in [2] is listed as “more than 5 fold”. For the same molecule, the “improvement of anti-K562/adr (drug-resistant chronic myelogenous leukemia) activity” value in [3] is “more than 6 fold”. In addition, the “improvement of anti-Becap37 (human breast cancer cell) activity” value in [4] is reported as roughly 5 fold. In addition, the “improvement of anti-MGC 803 (human gastric cancer cells) activity” value in data set [5] was roughly 7 fold. In addition, the “improvement of anti-HepG2 (human hepatocellular carcinoma, HCC) activity” value in data set [6] is on record as roughly 5 fold. Moreover, the “improvement of anti-MCF-7 (breast cancer) activity” value with MCF-7 (breast cancer) is listed as roughly 6 fold. Further, in [7], the “improvement of anti-PANC-1 (pancreatic cancer) activity” value is reported as “more than 6 fold”. Moreover, the “improvement of anti-MG63 (osteosarcomas) activity” value in the data set with MG63 (osteosarcomas) is listed as roughly 8 fold. In [8], the “improvement of anti-RPMI8226 (multiple myeloma) cell activity” value was roughly 6 fold.

Regarding `COc1cc2c3cc1Oc1c(OC)c(OC)cc4c1[C@@H](Cc1ccc(O)c(c1)Oc1ccc(cc1)C[C@@H]3N(C)CC2)N(C)CC4` [BBM, 6,6′,7-trimethoxy-2,2′-dimethylberbaman-12-ol], the cell viability rate in data set [9] (drug concentration 0.5 ug/mL) is given as 93.69%; in data set [9] (drug concentration 10 ug/mL) it was 14.85%. Further, the “cytotoxicity on normal human peripheral blood leucocytes” value in data set [10] is on record as “no obvious cytotoxicity”.

The values are drawn from patent US9249137B2, “Dicarboximide derivatives of berbamine, the preparation and use thereof” (HANGZHOU BENSHENG PHARMACEUTICAL CO., LTD., priority 2010, dated 2016).
